# Reference: patent US7074789B2, “Kinase inhibitors” (Amgen Inc., priority 1999, dated 2006)
# How the values were obtained:
# Assay type in all cases: biochemical
# [1] = molecular target: T1, Itk (Homo sapiens, UniProt Q08881); assay: Kinase inhibition assay (33P transfer), Itk; settings: Table 3; read-out: Itk-1
# T1 construct: Kinases are expressed as either kinase domains or full length constructs; made in house
# T1 sequence (Q08881 1-620): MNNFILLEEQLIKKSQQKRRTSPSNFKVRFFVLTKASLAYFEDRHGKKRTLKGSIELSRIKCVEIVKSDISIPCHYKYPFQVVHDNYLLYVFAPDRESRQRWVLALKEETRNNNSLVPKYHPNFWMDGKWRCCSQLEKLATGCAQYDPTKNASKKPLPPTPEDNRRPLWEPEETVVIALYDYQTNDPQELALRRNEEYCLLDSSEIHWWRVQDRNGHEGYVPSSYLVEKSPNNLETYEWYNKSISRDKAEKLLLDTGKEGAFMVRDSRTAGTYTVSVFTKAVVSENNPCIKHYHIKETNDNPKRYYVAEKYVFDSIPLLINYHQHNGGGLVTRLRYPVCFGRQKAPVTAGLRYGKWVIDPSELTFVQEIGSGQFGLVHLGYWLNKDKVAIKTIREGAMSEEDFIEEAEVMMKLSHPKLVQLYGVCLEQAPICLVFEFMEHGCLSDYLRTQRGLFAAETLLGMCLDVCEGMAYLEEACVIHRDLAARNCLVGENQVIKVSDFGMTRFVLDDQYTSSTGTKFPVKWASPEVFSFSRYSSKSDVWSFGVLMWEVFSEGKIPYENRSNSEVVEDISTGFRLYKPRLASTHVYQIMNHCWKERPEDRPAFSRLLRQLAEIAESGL
# Outline: (§1)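 GST/His-fusion kinases, E. coli or High Five expressed, affinity purified; 33P-ATP, plate-coated poly(Glu,Tyr) 4:1 or poly(Arg,Ser) 3:1; 0.5% H3PO4 wash, scintillant, LSC.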
# [2] = molecular target: T2, IGFR-1 (Homo sapiens, UniProt P08069); assay: Kinase inhibition assay (33P transfer), IGFR-1; settings: Table 2, kinase inhibition class
# T2 construct: Kinases are expressed as either kinase domains or full length constructs; made in house
# [3] = molecular target: T3, Fyn (Homo sapiens, UniProt P06241); assay: Kinase inhibition assay (33P transfer), Fyn; settings: read-out: Fyn-1
# T3 construct: Kinases are expressed as either kinase domains or full length constructs; made in house
# Outline: as §1
# [4] = molecular target: T4, Lck (Homo sapiens, UniProt P06239); assay: Kinase inhibition assay (33P transfer), Lck; settings: Table 3; read-out: Lck-1
# T4 construct: Kinases are expressed as either kinase domains or full length constructs; made in house
# Outline: (§2)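 Filterless plate radiometric format: immobilized poly(Glu,Tyr) 4:1 or poly(Arg,Ser) 3:1, 33P-labelled ATP, tagged recombinant kinase (some with regulatory partners). Incorporated label counted after phosphoric acid wash.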
# [5] = molecular target: T5, Lyn (Homo sapiens, UniProt P07948); assay: Kinase inhibition assay (33P transfer), Lyn; settings: Table 6, Lyn-1 kinase inhibition class
# T5 construct: Kinases are expressed as either kinase domains or full length constructs; made in house
# Outline: as §1
# [6] = molecular target: T6, PDGFRB (Homo sapiens, UniProt P09619); assay: Kinase inhibition assay (33P transfer), PDGFRB; settings: read-out: PDGFRB-1
# T6 construct: Kinases are expressed as either kinase domains or full length constructs; made in house
# [7] = molecular target: T7, ErbB4 (Homo sapiens, UniProt Q15303); assay: Kinase inhibition assay (33P transfer), ErbB4; settings: read-out: ErbB4-1
# T7 construct: Kinases are expressed as either kinase domains or full length constructs; made in house
# [8] = molecular target: T8, Kdr (Homo sapiens, UniProt P35968); assay: Kinase inhibition assay (33P transfer), Kdr; settings: Table 3; read-out: KDR-1
# T8 construct: Kinases are expressed as either kinase domains or full length constructs; made in house
# Outline: as §2
# [9] = molecular target: T9, Src (Homo sapiens, UniProt P12931); assay: Kinase inhibition assay (33P transfer), Src; settings: Table 6, Src-1 kinase inhibition class
# T9 construct: Kinases are expressed as either kinase domains or full length constructs; made in house
# Outline: as §1
# [10] = molecular target: T10, FGFR1 (Homo sapiens, UniProt P11362); assay: Kinase inhibition assay (33P transfer), FGFR1; settings: read-out: FGFR1-1
# T10 construct: Kinases are expressed as either kinase domains or full length constructs; made in house
# [11] = molecular target: T11, Zap-70 (Homo sapiens, UniProt P43403); assay: Kinase inhibition assay (33P transfer), Zap-70; settings: Table 3; read-out: Zap-1
# T11 construct: Kinases are expressed as either kinase domains or full length constructs; made in house
# T11 sequence (P43403 1-619): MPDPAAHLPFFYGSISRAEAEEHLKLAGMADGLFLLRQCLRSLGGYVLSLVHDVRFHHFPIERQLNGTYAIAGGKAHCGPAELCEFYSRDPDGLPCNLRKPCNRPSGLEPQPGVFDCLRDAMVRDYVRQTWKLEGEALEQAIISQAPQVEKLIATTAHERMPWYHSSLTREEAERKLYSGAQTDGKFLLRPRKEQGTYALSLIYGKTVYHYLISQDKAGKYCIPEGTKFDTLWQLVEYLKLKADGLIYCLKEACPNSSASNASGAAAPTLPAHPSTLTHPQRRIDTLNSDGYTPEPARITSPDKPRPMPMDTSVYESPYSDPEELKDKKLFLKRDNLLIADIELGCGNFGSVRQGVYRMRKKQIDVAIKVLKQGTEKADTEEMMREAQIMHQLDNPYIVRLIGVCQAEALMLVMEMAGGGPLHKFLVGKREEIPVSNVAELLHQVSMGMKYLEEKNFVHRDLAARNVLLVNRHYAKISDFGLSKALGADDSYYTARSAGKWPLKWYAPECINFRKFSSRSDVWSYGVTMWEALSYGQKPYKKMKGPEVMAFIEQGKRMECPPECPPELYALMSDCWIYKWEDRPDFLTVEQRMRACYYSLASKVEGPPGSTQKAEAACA
# Outline: as §2
# [12] = molecular target: T12, c-Met (Homo sapiens, UniProt P08581); assay: Kinase inhibition assay (33P transfer), c-Met; settings: Table 2, kinase inhibition class; read-out: Met-1
# T12 construct: Kinases are expressed as either kinase domains or full length constructs; made in house
# Outline: as §1
# T10 sequence (P11362 22-822, species assumed): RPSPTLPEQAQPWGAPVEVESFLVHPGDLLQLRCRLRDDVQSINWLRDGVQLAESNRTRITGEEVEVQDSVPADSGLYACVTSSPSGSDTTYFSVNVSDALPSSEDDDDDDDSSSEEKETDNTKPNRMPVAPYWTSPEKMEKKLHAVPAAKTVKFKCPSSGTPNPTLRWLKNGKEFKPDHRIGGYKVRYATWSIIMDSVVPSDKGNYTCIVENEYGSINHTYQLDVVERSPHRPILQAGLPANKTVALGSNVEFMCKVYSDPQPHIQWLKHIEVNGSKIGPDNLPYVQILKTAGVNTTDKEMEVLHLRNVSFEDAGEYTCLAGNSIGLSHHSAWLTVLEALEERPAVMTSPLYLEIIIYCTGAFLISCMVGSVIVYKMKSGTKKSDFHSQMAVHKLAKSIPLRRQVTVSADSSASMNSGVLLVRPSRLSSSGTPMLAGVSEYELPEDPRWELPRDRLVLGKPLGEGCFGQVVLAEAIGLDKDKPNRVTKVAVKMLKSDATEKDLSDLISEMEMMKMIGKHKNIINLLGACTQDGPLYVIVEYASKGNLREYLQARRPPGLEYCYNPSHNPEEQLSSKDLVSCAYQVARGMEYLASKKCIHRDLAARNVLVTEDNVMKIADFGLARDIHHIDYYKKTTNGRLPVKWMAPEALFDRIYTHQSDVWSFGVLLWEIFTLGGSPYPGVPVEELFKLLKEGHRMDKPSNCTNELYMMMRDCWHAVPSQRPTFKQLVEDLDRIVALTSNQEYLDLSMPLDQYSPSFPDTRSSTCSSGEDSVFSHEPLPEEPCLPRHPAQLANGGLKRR
# T5 sequence (P07948 whole entry, species assumed, the tested form may be a part): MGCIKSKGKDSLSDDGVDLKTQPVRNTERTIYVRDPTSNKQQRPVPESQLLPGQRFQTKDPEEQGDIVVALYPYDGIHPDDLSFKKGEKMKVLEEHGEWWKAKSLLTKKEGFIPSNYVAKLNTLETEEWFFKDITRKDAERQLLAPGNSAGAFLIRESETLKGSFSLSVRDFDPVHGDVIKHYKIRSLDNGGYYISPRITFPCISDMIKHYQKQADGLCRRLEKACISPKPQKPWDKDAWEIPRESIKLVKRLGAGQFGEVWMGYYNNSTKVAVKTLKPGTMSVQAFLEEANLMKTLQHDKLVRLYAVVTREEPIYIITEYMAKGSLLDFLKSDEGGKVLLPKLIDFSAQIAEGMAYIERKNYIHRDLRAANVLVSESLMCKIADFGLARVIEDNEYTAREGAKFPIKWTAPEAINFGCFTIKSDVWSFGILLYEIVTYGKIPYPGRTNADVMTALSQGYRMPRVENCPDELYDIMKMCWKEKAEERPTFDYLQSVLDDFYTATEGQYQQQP
# T8 sequence (P35968 20-1356, species assumed): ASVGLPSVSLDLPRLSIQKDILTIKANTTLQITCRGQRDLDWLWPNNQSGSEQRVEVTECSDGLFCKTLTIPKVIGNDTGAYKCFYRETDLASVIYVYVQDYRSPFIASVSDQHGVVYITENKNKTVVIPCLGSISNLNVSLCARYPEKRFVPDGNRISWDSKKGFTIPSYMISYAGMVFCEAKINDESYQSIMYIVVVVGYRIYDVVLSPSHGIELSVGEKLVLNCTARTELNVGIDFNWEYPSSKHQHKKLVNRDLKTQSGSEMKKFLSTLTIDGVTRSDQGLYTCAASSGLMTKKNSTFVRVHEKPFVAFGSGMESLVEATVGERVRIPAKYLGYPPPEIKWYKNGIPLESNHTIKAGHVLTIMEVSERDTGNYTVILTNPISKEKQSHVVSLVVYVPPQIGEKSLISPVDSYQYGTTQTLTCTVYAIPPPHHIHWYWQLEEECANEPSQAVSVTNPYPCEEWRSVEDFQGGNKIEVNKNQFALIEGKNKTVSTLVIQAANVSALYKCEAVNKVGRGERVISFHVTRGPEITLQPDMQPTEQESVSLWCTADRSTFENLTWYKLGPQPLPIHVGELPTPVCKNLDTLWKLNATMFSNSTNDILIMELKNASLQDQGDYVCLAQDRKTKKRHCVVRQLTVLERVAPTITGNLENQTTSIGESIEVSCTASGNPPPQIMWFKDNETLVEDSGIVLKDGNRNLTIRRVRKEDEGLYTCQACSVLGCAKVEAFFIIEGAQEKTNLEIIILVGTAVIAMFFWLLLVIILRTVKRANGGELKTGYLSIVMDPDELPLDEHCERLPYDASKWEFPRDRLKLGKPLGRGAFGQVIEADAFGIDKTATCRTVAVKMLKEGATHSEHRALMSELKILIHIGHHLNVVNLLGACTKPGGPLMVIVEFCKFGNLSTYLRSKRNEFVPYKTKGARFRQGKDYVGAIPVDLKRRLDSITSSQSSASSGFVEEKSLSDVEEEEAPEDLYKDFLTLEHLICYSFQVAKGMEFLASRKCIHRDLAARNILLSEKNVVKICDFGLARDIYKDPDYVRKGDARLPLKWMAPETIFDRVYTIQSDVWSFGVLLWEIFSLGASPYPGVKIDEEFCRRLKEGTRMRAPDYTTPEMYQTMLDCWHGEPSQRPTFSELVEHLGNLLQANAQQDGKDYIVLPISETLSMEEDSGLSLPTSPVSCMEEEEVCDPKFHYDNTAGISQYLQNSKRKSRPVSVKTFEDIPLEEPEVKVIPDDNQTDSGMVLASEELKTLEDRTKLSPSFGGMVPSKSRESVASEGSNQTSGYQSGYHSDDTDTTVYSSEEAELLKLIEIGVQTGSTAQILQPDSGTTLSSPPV
# T7 sequence (Q15303 26-1308, species assumed): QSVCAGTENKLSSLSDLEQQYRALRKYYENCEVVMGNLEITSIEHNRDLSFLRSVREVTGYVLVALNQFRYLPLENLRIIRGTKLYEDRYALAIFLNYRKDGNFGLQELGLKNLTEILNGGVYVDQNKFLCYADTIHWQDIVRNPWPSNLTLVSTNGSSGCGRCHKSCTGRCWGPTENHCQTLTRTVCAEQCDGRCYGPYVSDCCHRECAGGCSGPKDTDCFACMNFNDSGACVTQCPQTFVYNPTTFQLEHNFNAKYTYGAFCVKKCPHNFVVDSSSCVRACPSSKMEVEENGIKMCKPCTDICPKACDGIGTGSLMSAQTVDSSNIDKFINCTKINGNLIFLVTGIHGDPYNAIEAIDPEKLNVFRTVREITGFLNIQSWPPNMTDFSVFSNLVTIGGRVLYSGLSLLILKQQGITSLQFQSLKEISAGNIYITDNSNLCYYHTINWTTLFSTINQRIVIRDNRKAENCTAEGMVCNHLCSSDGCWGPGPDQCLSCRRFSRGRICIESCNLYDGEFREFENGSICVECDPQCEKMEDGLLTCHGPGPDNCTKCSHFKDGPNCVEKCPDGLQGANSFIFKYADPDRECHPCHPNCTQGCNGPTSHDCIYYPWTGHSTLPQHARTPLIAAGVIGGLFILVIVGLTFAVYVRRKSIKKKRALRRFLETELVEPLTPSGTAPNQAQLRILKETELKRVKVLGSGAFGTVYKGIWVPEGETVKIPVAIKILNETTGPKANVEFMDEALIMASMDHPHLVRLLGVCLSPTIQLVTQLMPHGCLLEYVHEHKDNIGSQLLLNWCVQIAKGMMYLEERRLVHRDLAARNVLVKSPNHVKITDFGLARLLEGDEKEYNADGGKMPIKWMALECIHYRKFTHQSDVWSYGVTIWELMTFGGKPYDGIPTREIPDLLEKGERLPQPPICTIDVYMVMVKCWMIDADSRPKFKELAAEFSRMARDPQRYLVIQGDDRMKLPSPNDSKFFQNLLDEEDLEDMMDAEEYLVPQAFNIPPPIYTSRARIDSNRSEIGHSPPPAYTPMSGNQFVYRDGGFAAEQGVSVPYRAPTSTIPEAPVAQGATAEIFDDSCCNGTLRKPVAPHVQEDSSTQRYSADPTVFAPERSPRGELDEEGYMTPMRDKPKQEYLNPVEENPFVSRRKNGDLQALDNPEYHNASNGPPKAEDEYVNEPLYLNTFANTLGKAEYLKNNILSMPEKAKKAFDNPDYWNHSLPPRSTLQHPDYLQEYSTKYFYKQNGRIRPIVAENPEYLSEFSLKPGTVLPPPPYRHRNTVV
# T6 sequence (P09619 33-1106, species assumed): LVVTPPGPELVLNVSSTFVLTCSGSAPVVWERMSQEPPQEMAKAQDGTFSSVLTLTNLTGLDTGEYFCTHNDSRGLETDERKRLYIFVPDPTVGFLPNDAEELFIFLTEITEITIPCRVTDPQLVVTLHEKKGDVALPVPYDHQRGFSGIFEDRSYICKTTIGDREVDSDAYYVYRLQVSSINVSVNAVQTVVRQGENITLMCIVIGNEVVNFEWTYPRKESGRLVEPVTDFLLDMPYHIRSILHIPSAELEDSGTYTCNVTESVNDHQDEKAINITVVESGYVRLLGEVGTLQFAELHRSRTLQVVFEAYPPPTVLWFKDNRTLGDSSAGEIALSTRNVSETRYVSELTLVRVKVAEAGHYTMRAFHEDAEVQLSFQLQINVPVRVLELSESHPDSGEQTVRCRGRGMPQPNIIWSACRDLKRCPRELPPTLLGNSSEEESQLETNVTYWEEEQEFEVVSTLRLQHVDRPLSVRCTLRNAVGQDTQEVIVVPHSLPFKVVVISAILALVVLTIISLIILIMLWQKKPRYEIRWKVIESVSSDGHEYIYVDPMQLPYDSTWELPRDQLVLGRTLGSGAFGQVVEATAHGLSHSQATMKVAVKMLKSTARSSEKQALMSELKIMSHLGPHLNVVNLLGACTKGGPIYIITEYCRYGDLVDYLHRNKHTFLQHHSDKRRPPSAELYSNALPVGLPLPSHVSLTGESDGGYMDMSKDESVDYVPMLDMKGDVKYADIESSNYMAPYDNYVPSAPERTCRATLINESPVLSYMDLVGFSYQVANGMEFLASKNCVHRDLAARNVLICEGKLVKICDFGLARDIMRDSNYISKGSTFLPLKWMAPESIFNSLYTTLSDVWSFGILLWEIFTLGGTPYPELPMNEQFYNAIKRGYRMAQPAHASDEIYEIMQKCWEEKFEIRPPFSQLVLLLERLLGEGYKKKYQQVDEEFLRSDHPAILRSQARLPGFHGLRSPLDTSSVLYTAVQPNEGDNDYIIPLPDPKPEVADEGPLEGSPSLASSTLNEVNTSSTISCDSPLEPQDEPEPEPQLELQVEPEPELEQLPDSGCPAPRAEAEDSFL
SMILES,IC50 [1],IC50 [2],IC50 [3],IC50 [4],IC50 [5],IC50 [6],IC50 [7],IC50 [8],IC50 [9],IC50 [10],IC50 [11],IC50 [12]
COc1cc(Nc2ncnc(Nc3ccccc3F)n2)cc(OC)c1OC [Compound 65],> 12.1 µM,1.08 to 6.46 µM,> 12.1 µM,9.42 to 12.1 µM,1.08 to 6.46 µM,< 1.08 µM,> 12.1 µM,1.08 to 6.46 µM,1.08 to 6.46 µM,> 12.1 µM,> 12.1 µM,> 12.1 µM
COc1cc(Nc2ncnc(-c3ccnc(NCCCO)c3)n2)cc(OC)c1OC [Compound 180],> 10.9 µM,> 10.9 µM,5.82 to 8.49 µM,0.97 to 5.82 µM,0.97 to 5.82 µM,8.49 to 10.9 µM,> 10.9 µM,0.97 to 5.82 µM,> 10.9 µM,> 10.9 µM,> 10.9 µM,> 10.9 µM
COc1cc(Nc2ncnc(NC(=O)Nc3ccccc3)n2)cc(OC)c1OC [Compound 852],> 11.4 µM,< 1.01 µM,> 11.4 µM,> 11.4 µM,> 11.4 µM,8.83 to 11.4 µM,> 11.4 µM,6.05 to 8.83 µM,> 11.4 µM,> 11.4 µM,8.83 to 11.4 µM,6.05 to 8.83 µM
COc1cc(Nc2ncnc(-n3c(Nc4ccc(C)cc4)nc4ccccc43)n2)cc(OC)c1OC [Compound 385],> 9.31 µM,> 9.31 µM,> 9.31 µM,0.827 to 4.96 µM,0.827 to 4.96 µM,< 0.827 µM,> 9.31 µM,< 0.827 µM,> 9.31 µM,< 0.827 µM,> 9.31 µM,> 9.31 µM
COc1cc(Nc2ncnc(-n3c(Nc4cccc(C)c4)nc4ccccc43)n2)cc(OC)c1OC [Compound 386],> 9.31 µM,> 9.31 µM,> 9.31 µM,4.96 to 7.24 µM,> 9.31 µM,0.827 to 4.96 µM,> 9.31 µM,< 0.827 µM,> 9.31 µM,< 0.827 µM,> 9.31 µM,> 9.31 µM
NC(=O)c1ccc(Nc2ncnc(-n3c(N)nc4ccccc43)n2)cc1 [Compound 396],< 1.15 µM,< 1.15 µM,1.15 to 6.93 µM,1.15 to 6.93 µM,1.15 to 6.93 µM,1.15 to 6.93 µM,1.15 to 6.93 µM,< 1.15 µM,> 13 µM,< 1.15 µM,> 13 µM,1.15 to 6.93 µM
COc1cc(Nc2ncnc(-n3c(Nc4cccc(C(=O)O)c4)nc4ccccc43)n2)cc(OC)c1OC [Compound 390],> 8.76 µM,> 8.76 µM,0.779 to 4.67 µM,< 0.779 µM,0.779 to 4.67 µM,0.779 to 4.67 µM,6.82 to 8.76 µM,0.779 to 4.67 µM,4.67 to 6.82 µM,4.67 to 6.82 µM,> 8.76 µM,6.82 to 8.76 µM
NC(=O)c1ccc(Nc2ncnc(Nc3cc(-c4ccco4)n[nH]3)n2)cc1 [Compound 341],6.62 to 9.66 µM,1.1 to 6.62 µM,> 12.4 µM,6.62 to 9.66 µM,> 12.4 µM,< 1.1 µM,> 12.4 µM,< 1.1 µM,> 12.4 µM,< 1.1 µM,> 12.4 µM,1.1 to 6.62 µM
COc1cc(Nc2ncnc(Nc3cccc(Br)c3)n2)cc(OC)c1OC [Compound 75],> 10.4 µM,< 0.925 µM,0.925 to 5.55 µM,0.925 to 5.55 µM,< 0.925 µM,> 10.4 µM,> 10.4 µM,0.925 to 5.55 µM,0.925 to 5.55 µM,8.1 to 10.4 µM,8.1 to 10.4 µM,8.1 to 10.4 µM
